Reference: patent publication US20230203482A1, “Methods of Rescuing Stop Codons via Genetic Reassignment with ACE-tRNA” (THE WISTAR INSTITUTE OF ANATOMY AND BIOLOGY, priority 2017, published 2023)

System: histidinol dehydrogenase (HDH) N94-TGA
Experiment: Mass spectrometry of suppressed histidinol dehydrogenase (cognate amino acid encoding)
Type: cell-based, E. coli
Conditions: MS/MS of tryptic fragment
Excerpt: For expression in mammalian cells, the cDNA for the coding region and 200 base-pair of the 3′ untranslated region (UTR) of human CFTR was ligated into pcDNA3.1(+) (Promega, USA) using the KpnI and XbaI restriction enzymes. The G542tga and W1282tga mutations were introduced using QuickChange XL II (Stratagene, USA). For expression in Xenopus laevis oocytes, the cDNA for the coding region and 140 base-pair of the 5′ and 244 base-pair 3′ UTR of human CFTR was ligated into pGEM-HE (Promega, USA). Bothe the G542tga and W1282tga mutations were introduced using QuickChange XL II. The cDNA encoding the E. coli histidinol dehydrogenase was codon optimized for Mus musculus and synthesized (BioBasic Inc, Canada) with a c-terminal 8xHis-Strep-tag for protein purification from mammalian cells. The synthesized cDNA was ligated into pcDNA3.1(+) using EcoRI and XhoI restriction sites. The nonsense mutations tag, taa and tga were introduced using QuickChange XL II. […]

## Trpchr17.trna39: top performing tryptophan ACE-tRNA UGA suppressor, SEQ ID NO: 48
  mass modification of Asn at HDH N94: +72 Da

B1: Glychr19.trna2: top performing glycine ACE-tRNA UGA suppressor, SEQ ID NO: 53 (nucleic acid)
chain: GCGTTGGTGGTATAGTGGTTAGCATAGCTGCCTTCAAAGCAGTTGACCCGGGTTCGATTCCCGGCCAACGCA
modifications: chemistry not fully specified
  mass modification of Asn at HDH N94: −57 Da
